This note sets out measurements from US6620785B2, “Treatment of Mycobacterial diseases by administration of bactericidal/permeability-increasing protein products” (Xoma Corporation, priority 1993, dated 2003).

Read-outs that look alike come from different tables or passages of the source.

The test system of one assay is M. tuberculosis. The experiment in a line: Bactec growth index assay of M. tuberculosis with rBPI23 and antibiotics (Example 5). The assay is classed as cell-based.
Assay [1] deals with M. tuberculosis (strain H37Ra) induced production of TNF by monocytes/macrophages. The assay is classed as cell-based, human. As to conditions: second test, 4 μg/ml.

As to `NNC(=O)c1ccncc1` [INH, isoniazid], in the assay with M. tuberculosis (INH alone, no BPI protein product, 0.006-0.05 μg/ml), the growth index result is “increases generally began earlier and rose more steeply at lower doses than at higher doses”.

Take `CO[C@H]1/C=C/O[C@@]2(C)Oc3c(C)c(O)c4c(O)c(c(/C=N/N5CCN(C)CC5)c(O)c4c3C2=O)NC(=O)/C(C)=C\C=C\[C@H](C)[C@H](O)[C@@H](C)[C@@H](O)[C@@H](C)[C@H](OC(C)=O)[C@@H]1C` [RMP, rifampin]: the growth index entry in the assay with M. tuberculosis (RMP 0.5 and 1.0 μg/ml, entire test period (day 2 to 18)) is listed as “essentially no increase in growth index”.

B1: BPI holoprotein: recombinant human bactericidal/permeability-increasing holoprotein, SEQ ID NOS:1 and 2 (protein)
chain: MRENMARGPCNAPRWVSLMVLVAIGTAVTAAVNPGVVVRISQKGLDYASQQGTAALQKELKRIKIPDYSDSFKIKHLGKGHYSFYSMDIREFQLPSSQISMVPNVGLKFSISNANIKISGKWKAQKRFLKMSGNFDLSIEGMSISADLKLGSNPTSGKPTITCSSCSSHINSVHVHISKSKVGWLIQLFHKKIESALRNKMNSQVCEKVTNSVSSKLQPYFQTLPVMTKIDSVAGINYGLVAPPATTAETLDVQMKGEFYSENHHNPPPFAPPVMEFPAAHDRMVYLGLSDYFFNTAGLVYQEAGVLKMTLRDDMIPKESKFRLTTKFFGTFLPEVAKKFPNMKIQIHVSASTPPHLSVQPTGLTFYPAVDVQAFAVLPNSSLASLFLIGMHTTGSMEVSAESNRLVGELKLDRLLLELKHSNIGPFPVELLQDIMNYIVPILVLPRVNEKLQKGFPLPTPARVQLYNVVLQPHQNFLLFGADVVYK
Regarding B1, the “inhibition of TNF production” value in assay [1] (3×10^5 to 1×10^7 organisms) is “Lesser degrees of inhibition”; in assay [1] (highest concentration of organisms, one duplicate test), “no inhibition at all”.
